This is an account of results in patent US11970440B1, “8-(3-chlorobenzylideneamino)naphthalene-1,3-disulfonic acid as an antioxidant compound” (KING FAISAL UNIVERSITY, priority 2023, dated 2024).

This experiment can be described thus: DPPH (2,2-diphenyl-1-picrylhydrazyl) radical scavenging antioxidant test in vitro. The format is biochemical. Particulars: 517 nm; for Inhibition (radical scavenging inhibition): 0.2 mL DPPH (0.75 mM), compound 3 μM in ethanol, 30 min incubation in the dark. The procedure:
The antioxidant properties of the 8-(3-chlorobenzylideneamino)naphthalene-1,3-disulfonic acid were studied by adding 0.2 mL DPPH (0.75 mM)) to compound 8-(3-chlorobenzylideneamino)naphthalene-1,3-disulfonic acid (III) (3 μM) in ethanol. After 30 min of incubation in the dark, the absorbance was read against a blank at 517 nm. Ascorbic acid (vitamin C) was used as standard antioxidants (positive control). A blank sample was prepared by 0.2 ml of DPPH in 3 ml ethanol. A negative control sample was run using ethanol instead of the sample. The radical scavenging inhibition was calculated using the following equation: […]
The antioxidant activity for the synthesized compound is listed in Table 1, using Vitamin C as a reference.

With `O=S(=O)(O)c1cc(S(=O)(=O)O)c2c(/N=C/c3cccc(Cl)c3)cccc2c1` [Product III, 8-(3-chlorobenzylideneamino)naphthalene-1,3-disulfonic acid], the “Inhibition (radical scavenging inhibition)” value came out at 50%. Further, the “antioxidant potential in DPPH test, in words” value (DPPH in vitro test, vitamin C as positive control) is recorded as “high potential as an antioxidant compared to vitamin C”.

With `O=C1O[C@H]([C@@H](O)CO)C(O)=C1O` [vit c, Ascorbic acid, reference compound], the “Inhibition (radical scavenging inhibition)” value was 74%.
